For data set [1], the system named is Blackgrass. As to the kind of experiment: Herbicidal activity test, foliage treatment. Format: in vivo, Alopercurus myosuroides. The arrangement: key: 0: situations in which the condition of sprouting or vegetation at the time of examination of the plant utilized for the test was compared with and showed totally or substantially no difference with that of the untreated application; 10: situations in which the plant completely withered or the sprouting or vegetation was completely suppressed. The note with it: sprayed onto the foliage of plants cultivated 10 days, investigated after 16 days in a greenhouse. Here is the method:
Soil was packed into a round plastic pot having a diameter of 10 cm and depth of 10 cm. Barnyardgrass, Blackgrass, Ivyleaf morningglory were seeded and cultivated in a greenhouse for 10 days. Five (5) parts of the test compound, 6 parts of sorpol3005X (Toho Chemical Company) and 89 parts of xylene were well mixed to produce an emulsion. A certain amount thereof was diluted with water containing 0.1% (v/v) of a sticking agent at a proportion of 1000 L for 1 hectare and was spread uniformly with a spray-gun onto the all sides of the foliage from above the plant cultivated in the above pot. After cultivating the plants for 16 days in a greenhouse, the herbicidal activity of the test compound was investigated.
(§1) In the above Tables 3 and 4, the strength of the herbicidal activity is shown stepwise as 0, 1, 2, 3, 4, 5, 6, 7, 8, 9, and 10.

Data set [2] relates to Blackgrass. As to the kind of experiment: Herbicidal activity test, soil surface treatment. It counts as in vivo, Alopercurus myosuroides. As to conditions: 500 g/ha, sprayed onto the surface of the soil after seeding, investigated after 19 days in a greenhouse. The arrangement: key: 0: situations in which the condition of sprouting or vegetation at the time of examination of the plant utilized for the test was compared with and showed totally or substantially no difference with that of the untreated application; 10: situations in which the plant completely withered or the sprouting or vegetation was completely suppressed. As for the experimental part: Soil was packed into a round plastic pot having a diameter of 10 cm and depth of 10 cm. Barnyardgrass, Blackgrass, Ivyleaf morningglory were seeded. Five (5) parts of the test compound, 6 parts of sorpol3005X (Toho Chemical Company) and 89 parts of xylene were well mixed to produce an emulsion. A certain amount thereof was diluted with water containing 0.1% (v/v) of a sticking agent at a proportion of 1000 L for 1 hectare and was spread uniformly with a spray-gun onto the surface of the soil. After cultivating the plants for 19 days in a greenhouse, the herbicidal activity was investigated.
as §1

The subject of data set [3] is present invention protein (A11). As to the kind of experiment: Detection of the ability to convert compound (II) to compound (III), E. coli pKSN849AF extract. Format: in vitro ADME, Streptomyces nogalator IFO13445. The note with it: 3 ppm of compound (II) labeled with 14C, components A, B, 10 minutes at 30° C. As for the experimental part:
Reaction solutions of 30 μl were prepared and maintained for 1 hour at 30° C. The reaction solutions consisted of a 0.1M potassium phosphate buffer (pH7.0) containing 3 ppm of compound (II) labeled with ^14C, 2 mM of β-NADPH (hereinafter, referred to as “component A”) (Oriental Yeast Company), 0.2 mg/ml of a ferredoxin derived from spinach (hereinafter referred to as “component B”) (Sigma Company), 1 U/ml of ferredoxin reductase (hereinafter, referred to as “component C”) (Sigma Company) and 18 μl of the supernatant fraction recovered in Example 4(2). Further, there were prepared and maintained similarly reaction solutions having no addition of at least one component utilized in the composition of the above reaction solution, selected from component A, component B and component C. […] Next, the imaging plate was analyzed on Image Analyzer BAS2000 (Fuji Film Company). […]
Reaction solutions of 30 μl were prepared and maintained for 10 minutes at 30° C. […] Similarly to Example 4(3), the reaction solutions after the maintenance were extracted with ethyl acetate and the extracted layers were TLC analyzed. […] A spot corresponding to compound (III) was detected from the reaction solution containing E. coli pKSN849AF extract. In contrast, such a spot was not detected from the reaction solution containing E. coli pKSN2 extract.

For data set [4], the system named is present invention protein (A16). Nature of the data set: Detection of the ability to convert compound (II) to compound (III), E. coli pKSN452F extract. It counts as in vitro ADME, Streptomyces ornatus IFO 13069t. The note with it: 3 ppm of compound (II) labeled with 14C, components A, B, 10 minutes at 30° C. Here is the method:
(§2) Reaction solutions of 30 μl were prepared and maintained for 10 minutes at 30° C. The reaction solutions consisted of a 0.1M potassium phosphate buffer (pH7.0) containing 3 ppm of compound (II) labeled with ^14C, 2 mM of β-NADPH (hereinafter, referred to as “component A”) (Oriental Yeast Company), 2 mg/ml of a ferredoxin derived from spinach (hereinafter referred to as “component B”) (Sigma Company), 0.1 U/ml of ferredoxin reductase (hereinafter, referred to as “component C”) (Sigma Company) and 23 μl of the supernatant fraction recovered in Example 32(2). Similarly to Example 4(3), the reaction solutions after the maintenance were extracted with ethyl acetate and the extracted layers were TLC analyzed. […] A spot corresponding to compound (III) was detected from the reaction solution containing E. coli pKSN849AF extract. In contrast, such a spot was not detected from the reaction solution containing E. coli pKSN2 extract.
Similarly to Example 32(3), reaction solutions of 30 μl were prepared and maintained for 10 minutes at 30° C. […] The reaction solutions after the maintenance were extracted with ethyl acetate and the extracted layers were TLC analyzed. […] A spot corresponding to compound (III) was detected from the reaction solution containing E. coli pKSN452F extract. In contrast, such a spot was not detected from the reaction solution containing E. coli pKSN2 extract.

Data set [5] relates to present invention protein (A21). Nature of the data set: Detection of the ability to convert compound (II) to compound (III), E. coli pKSN1543BF extract. It counts as in vitro ADME, Streptomyces misawanensis IFO 13855T. The note with it: 3 ppm of compound (II) labeled with 14C, components A, B, 10 minutes at 30° C. As for the experimental part:
as §2
Similarly to Example 32(3), reaction solutions of 30 μl were prepared and maintained for 10 minutes at 30° C. […] The reaction solutions after the maintenance were extracted with ethyl acetate and the extracted layers were TLC analyzed. […] A spot corresponding to compound (III) was detected from the reaction solution containing E. coli pKSN1543BF extract. In contrast, such a spot was not detected from the reaction solution containing E. coli pKSN2 extract.

For `C[C@@H](Oc1cc(-n2c(=O)cc(C(F)(F)F)n(C)c2=O)c(F)cc1Cl)C(=O)O` [compound (II)], the “Herbicidal Activity Blackgrass” value in data set [1] (125 g/ha), in data set [1] (500 g/ha) and in data set [2] was 10 each time. Besides, the “spot corresponding to compound (III) labeled with 14C (TLC)” value in data set [3], in data set [4] and in data set [5] was “detected” in each case.

Source of the values: patent US8293979B2, “Weed controller metabolism proteins, genes, thereof and use of the same” (Sumitomo Chemical Company, Limited, priority 2001, dated 2012).
